Experimental data published in US20140024683A1, “CHLORIDE CHANNEL AND CHLORIDE TRANSPORTER MODULATORS FOR THERAPY IN SMOOTH MUSCLE DISEASES” (priority 2011, published 2014).

Tests used:
[1] = tested on: guinea pig tracheal rings; test: Attenuation of the initiation of an acetylcholine contraction by pretreatment, guinea pig tracheal rings; conditions: pretreatment with single agent alone
Experimental: (§1) Animal protocols were approved by the Columbia University Animal Care and Use Committee. Male Hartley guinea pigs weighing approximately 400 g were anesthetized with intraperitoneal injection of sodium pentobarbital (100 mg/kg). Trachea were removed and transferred to ice cold Krebs-Henseleit (KH) buffer of the following composition (in mM): NaCl 118, KCl 5.6, CaCl2 0.5, MgSO4 0.24, NaH2PO4 1.3, NaHCO3 25, glucose 5.6, pH 7.4. Epithelial-denuded tracheal rings were prepared using a dissecting microscope. Epithelium was removed by gently passing cotton fibers through the lumen of the tracheal rings. The rings were suspended in 4 mL-water jacketed organ baths (37° C.: Radnoti Glass Technology, Monrovia, Calif.) and connected to a Grass FT03 force transducer (Grass Telefactor, West Warwick, R.I.) using silk sutures. The transducers were coupled to the computer with BioPac hardware and data was collected using Acqknowledge 7.3.3 software (BioPac Systems, Goleta, Calif.). KH buffer was bubbled with a gas mixture of 95% oxygen and 5% carbon dioxide and buffer was exchanged every 15 minutes for 1 hour during equilibration of tracheal rings at 1 g resting tension. […].
Compounds 1 and 13 were tested for their abilities to attenuate the initiation phase of an acetylcholine contraction, as acetylcholine is a natural bronchoconstrictor and prevention of contraction would have clinical utility. […]

[2] = tested on: guinea pig tracheal rings; test: Potentiation of isoproterenol relaxation of acetylcholine contraction, guinea pig tracheal rings; conditions: 10 μM bumetanide
Experimental: as §1
Therefore, we tested whether the chloride channel blockers or modulation of chloride flux could be used in combination with β-agonists to potentiate their effects. […]. Therefore, a combination of treatment with compound 13 and bumetanide potentiated the relaxation effect of isoproterenol.

[3] = tested on: guinea pig tracheal rings; test: Relaxation of potassium gluconate contraction in guinea pig tracheal rings; conditions: 100 μM, 80 mM potassium gluconate
Experimental: as §1
Many chloride channel blockers are known to also stimulate potassium channels (Greenwood et al., 2007). Thus, we performed additional studies in the presence of a large extracellular concentration of potassium to ensure that our findings of compound 1 or 13 inhibiting a TEA-induced depolarizing contraction were not due to these compounds opening a potassium channel.

rat lung slices = test: Airway lumen area in peripheral small airways of rat lung slices; conditions: 100 μM NFA; TEA-induced contraction
Experimental: The measurement of airway contraction of a luminal area of small lung airways using the ex vivo rat lung slice method was performed as described (Perez-Zoghbi et al., 2007). The trachea was cannulated with an intravenous catheter, and after the chest cavity was opened, the collapsed lungs were reinflated with 1.3±0.1 ml of 2% agarose (low-gelling temperature) in Sigma-Hanks' Balanced Salt solution (sHBSS), followed by the injection of 0.2±0.1 of air to flush the agarose-sHBSS out of the airways and into the distal alveolar space. Subsequently, a warm (37° C.) solution of gelatin (type A, porcine skin, 300 bloom, 6% in sHBSS) was perfused through the intrapulmonary blood vessels via the pulmonary artery by injecting about 0.3 ml into the right ventricle. The warm agar and gelatin were gelled with cold sHBSS. A single lung lobe was removed and cut into serial sections of about 130 μm thick with a vibratome at about 4° C., starting at the lung periphery. Slices were maintained in DMEM (Invitrogen) at 37° C. and 10% CO2 for up to 3 days. At 37° C., the gelatin in the blood vessel lumen dissolved, leaving the blood vessel lumen empty. Lung slices were mounted in a custom-made perfusion chamber and held in place with a small sheet of nylon mesh. A second cover glass edged with silicone grease was placed over the lung slice. Perfusion of the lung slice was performed using a gravity-fed perfusion system. The volume of the chamber was about 100 μl with a perfusion rate of about 800 μl/min. […] Digital images were recorded in time lapse (30 frames/min). The area of the bronchiole and arteriole lumen was calculated, from each image, by pixel summing using custom-written software. Experiments were performed at room temperature.

[4] = tested on: calcium activated chloride channel; test: Whole cell voltage clamp, spontaneous transient inward currents (STICs) in a single guinea pig airway smooth muscle cell; type: cell-based; conditions: about 100 μM bath application after TEA; holding potential about −60 mV
Text: Epithelial denuded guinea pig tracheal rings were suspended in organ baths under 1 g resting tension with continuous digital recordings of muscle force. In separate studies, guinea pig airway smooth muscle cells were enzymatically dispersed and cultured.
Glass-bottom dishes served as a disposable recording chamber. ALA VM-8, an 8-chamber pressure-driven drug application system, was used in a still bath of extracellular salt solution. Whole-cell intracellular voltage recordings under current clamp conditions were performed with a 2-kHz Bessel filter, recording at 10 kHz using an Axopatch 200b amplifier (Axon Instruments, Foster City, Calif., USA). Electrodes were pulled using a P-97 micropipette puller from 1.5-mm OD borosilicate capillary glass (Sutter Instruments, Novato, Calif., USA). Glass electrode resistances ranged from 5 to 10 MO with intracellular solution. Whole-cell intracellular current recordings under voltage-clamp conditions were performed with a 2-kHz Bessel filter, recording at 10 kHz using an Axopatch 200b amplifier. For current measurements (FIG. 11) intracellular solutions consisted of (in mM) 140 TEA-Cl, 5 MgATP, 5 EGTA, 1 MgCl2, 10 HEPES, and 5 CaCl2 (pH 7.2). […] TEA-Cl was included in the buffer to enhance STICs which were then recorded during the addition of 100 μM niflumic acid. […] All recordings were analyzed on Clampfit 8.0 software (Molecular Devices).

[5] = tested on: human airway smooth muscle cells; test: Whole cell current clamp recording of membrane potential; type: cell-based
Experimental: Induced electrophysiological changes in membrane potential and current were measured using traditional whole cell patch clamp methods. Immortalized human airway smooth muscle cells were grown to confluence on collagen-treated T25 flasks. Collagenase type IV in SmBM2 medium (Lonza, Walkersville, Md.) was used to release cells adherent to the collagen matrix in the flask. Medium with cells in suspension was then harvested in a 10-ml conical tube and centrifuged at 300×g. Supernatant was removed, and the pellet was resuspended in SmBM2 medium and transferred into collagen-treated glass bottom 1-cm Petri dishes at about 10% confluence. Each dish was then incubated at 37° C. and 5% CO2 for 1-4 hours for reattachment of cells to glass-bottom Petri dishes.
Glass-bottom dishes served as a disposable recording chamber. ALA VM-8, an 8-chamber pressure-driven drug application system, was used in a still bath of extracellular salt solution. Whole-cell intracellular voltage recordings under current clamp conditions were performed with a 2-kHz Bessel filter, recording at 10 kHz using an Axopatch 200b amplifier (Axon Instruments, Foster City, Calif., USA). Electrodes were pulled using a P-97 micropipette puller from 1.5-mm OD borosilicate capillary glass (Sutter Instruments, Novato, Calif., USA). Glass electrode resistances ranged from 5 to 10 MO with intracellular solution. Whole-cell intracellular current recordings under voltage-clamp conditions were performed with a 2-kHz Bessel filter, recording at 10 kHz using an Axopatch 200b amplifier. For current measurements (FIG. 11) intracellular solutions consisted of (in mM) 140 TEA-Cl, 5 MgATP, 5 EGTA, 1 MgCl2, 10 HEPES, and 5 CaCl2 (pH 7.2). Extracellular solution consisted of (in mM) 134 NaCl, 1.4 KCl, 10 HEPES, 1 MgCl2, 1.8 CaCl2, and 10 glucose (pH 7.4). This induced the classic spontaneously transient inward currents (STICs) and spontaneously transient outward currents (STOCs) well described in this cell type. STOCs are believed to represent activation of calcium activated potassium (KCa) channels while STICs are believed to represent activation of CaCCs. TEA-Cl was included in the buffer to enhance STICs which were then recorded during the addition of 100 μM niflumic acid. When recording TEA- and niflumic acid-induced responses on membrane potential (ΔmV), the intracellular solutions contained (in mM) 140 KCl, 5 MgATP, 5 EGTA, 1 MgCl2, 10 HEPES, and 5 CaCl2 (pH 7.2), and the extracellular solutions consisted of (in mM) 134 NaCl, 5 MgATP, 5 EGTA, 1 MgCl2, 10 HEPES, and 5 CaCl2 (pH 7.2). All recordings were analyzed on Clampfit 8.0 software (Molecular Devices).

shift of the EC50 of isoproterenol [2] | Compound | attenuation of the initiation of an acetylcholine contraction [1] | percent of potassium gluconate-induced contraction at 30 minutes [3] | percent of potassium gluconate-induced contraction at 30 minutes ([3]; listed as NFA) | relaxation of TEA-contracted peripheral airway (lumen area) (rat lung slices) | spontaneous transient inward currents (STICs) [4] | membrane potential (whole cell current clamp) ([5]; 100 μM niflumic acid) | membrane potential (whole cell current clamp) after depolarization ([5]; following depolarization with TEA chloride)
2.4 fold | CCCCNc1cc(C(=O)O)cc(S(N)(=O)=O)c1Oc1ccccc1 [bumetanide] | failed to significantly attenuate a contraction | – | – | – | – | – | –
– | O=C(O)c1cccnc1Nc1cccc(C(F)(F)F)c1 [niflumic acid] | – | 47.36%±4.6 | 47.4%±4.6 | significantly relaxes the peripheral airway contracted with TEA | abolishes STIC's | hyperpolarizes the plasma membrane | reverses membrane potential
